# Target: Tyrosine-protein phosphatase non-receptor type 22 (Homo sapiens) (UniProt Q9Y2R2)
# Assay: concentration-dependent PTPN22 LYP inhibition – biochemical, pCAP substrate, fluorescence intensity, dose response (AID 435027)
# Conditions: recombinant LYP
# Chain of Tyrosine-protein phosphatase non-receptor type 22 (Homo sapiens) (Q9Y2R2 whole entry, looked up): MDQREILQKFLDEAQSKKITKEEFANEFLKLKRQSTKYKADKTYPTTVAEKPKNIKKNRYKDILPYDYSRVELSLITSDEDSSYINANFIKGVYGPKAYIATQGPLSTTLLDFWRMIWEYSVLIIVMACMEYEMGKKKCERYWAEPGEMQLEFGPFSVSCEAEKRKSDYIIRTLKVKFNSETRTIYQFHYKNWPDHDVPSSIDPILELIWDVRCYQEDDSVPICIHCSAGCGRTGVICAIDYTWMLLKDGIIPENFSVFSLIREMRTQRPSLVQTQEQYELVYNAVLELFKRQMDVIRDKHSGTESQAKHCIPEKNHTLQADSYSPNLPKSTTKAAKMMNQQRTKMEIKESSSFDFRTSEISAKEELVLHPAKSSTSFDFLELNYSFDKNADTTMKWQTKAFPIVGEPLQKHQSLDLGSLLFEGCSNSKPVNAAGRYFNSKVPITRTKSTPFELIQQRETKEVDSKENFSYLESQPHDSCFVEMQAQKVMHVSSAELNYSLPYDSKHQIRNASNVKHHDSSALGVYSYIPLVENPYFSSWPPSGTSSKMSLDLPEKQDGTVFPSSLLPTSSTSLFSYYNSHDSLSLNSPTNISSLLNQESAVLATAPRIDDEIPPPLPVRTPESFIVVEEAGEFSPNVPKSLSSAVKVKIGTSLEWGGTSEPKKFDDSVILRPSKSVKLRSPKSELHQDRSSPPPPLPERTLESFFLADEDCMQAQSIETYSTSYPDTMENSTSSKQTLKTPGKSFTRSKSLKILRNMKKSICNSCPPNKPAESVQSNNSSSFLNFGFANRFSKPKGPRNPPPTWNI
row,IC50 [µM],SMILES
1,4.76,O=C(O)CCCN1C(=O)/C(=C/c2ccc(-c3nc4ccccc4s3)o2)SC1=S
2,4.58,Cc1ccc(/C=C/c2nc3sc(C(=O)O)c(C)c3c(=O)[nH]2)cc1[N+](=O)[O-]
